From ChEMBL document CHEMBL1154443, “In vivo studies of 5-arylethenylbenzofuroxans in acute murine models of Chagas' disease” (Eur J Med Chem, 2008)
The source made the active and inactive calls. The rule behind the calls is not given here.

Key:
Trypanosoma cruzi [1] = experiment: Antitrypanosomal activity against Trypanosoma cruzi Colombiana infected Swiss mouse assessed as reduction in circulating trypomastigotes antibody level at 120 mg/kg/day, po after 44 days postinfection; format: functional, organism-based
Mus musculus [2] = experiment: Toxicity against Trypanosoma cruzi infected CD1 mouse assessed as effect on heart histology at 450 mg/kg, po; format: organism-based; design: dose 450 mg/kg, route oral; conditions: in vivo
Trypanosoma cruzi [3] = experiment: Antitrypanosomal activity against Trypanosoma cruzi Tulahuen 2 infected Swiss mouse assessed as suppression of parasitemia at 60 mg/kg/day, po; format: functional, organism-based
Trypanosoma cruzi [4] = experiment: Antitrypanosomal activity against Trypanosoma cruzi Tulahuen 2 infected Swiss mouse assessed as suppression of parasitemia at 120 mg/kg/day, po; format: functional, organism-based
Trypanosoma cruzi [5] = experiment: Antitrypanosomal activity against Trypanosoma cruzi Tulahuen 2 infected Swiss mouse assessed as prevention of heart inflammatory infiltrates at 120 mg/kg/day, po; format: functional, organism-based
Trypanosoma cruzi [6] = experiment: Antitrypanosomal activity against Trypanosoma cruzi Tulahuen 2 infected Swiss mouse assessed as prevention of muscle inflammatory infiltrates at 120 mg/kg/day, po; format: functional, organism-based; conditions: Muscle tissue
Trypanosoma cruzi [7] = experiment: Antitrypanosomal activity against Trypanosoma cruzi Tulahuen 2 infected Swiss mouse assessed as prevention of liver congestion at 120 mg/kg/day, po; format: functional, organism-based
Trypanosoma cruzi [8] = experiment: Antitrypanosomal activity against Trypanosoma cruzi Colombiana infected Swiss mouse assessed as reduction in circulating trypomastigotes antibody level at 120 mg/kg/day, po after 90 days postinfection; format: functional, organism-based
Trypanosoma cruzi [9] = experiment: Antitrypanosomal activity against Trypanosoma cruzi Colombiana infected Swiss mouse assessed as prevention of heart inflammatory infiltrates at 120 mg/kg/day, po; format: functional, organism-based
Trypanosoma cruzi [10] = experiment: Antitrypanosomal activity against Trypanosoma cruzi Colombiana infected Swiss mouse assessed as prevention of skeletal muscle inflammatory infiltrates at 120 mg/kg/day, po; format: functional, organism-based; conditions: Muscle tissue
Trypanosoma cruzi [11] = experiment: Antitrypanosomal activity against Trypanosoma cruzi Colombiana infected Swiss mouse assessed as prevention of liver congestion at 120 mg/kg/day, po; format: functional, organism-based
[12] = Toxicity against Trypanosoma cruzi Colombiana infected Swiss mouse assessed as mouse survival at 120 mg/kg/day, po after 25 days; format: organism-based; design: route oral; conditions: in vivo, read-out: Activity
[13] = Toxicity against Trypanosoma cruzi Tulahuen 2 infected Swiss mouse assessed as mouse survival at 120 mg/kg/day, po after 25 days; format: organism-based; design: route oral; conditions: in vivo, read-out: Activity
Trypanosoma cruzi [14] = experiment: Antitrypanosomal activity against Trypanosoma cruzi Argentinian isolate infected Swiss mouse assessed as suppression of parasitemia at 60 mg/kg/day, po; format: functional, organism-based
Trypanosoma cruzi [15] = experiment: Antitrypanosomal activity against Trypanosoma cruzi Uruguayan isolate infected CD1 mouse assessed as suppression of parasitemia at 60 mg/kg/day, po after 17 day postinfection; format: functional, organism-based
Trypanosoma cruzi [16] = experiment: Antitrypanosomal activity against Trypanosoma cruzi Argentinian isolate infected Swiss mouse assessed as prevention of heart inflammatory infiltrates at 60 mg/kg/day, po; format: functional, organism-based
Trypanosoma cruzi [17] = experiment: Antitrypanosomal activity against Trypanosoma cruzi Argentinian isolate infected Swiss mouse assessed as inhibition of heart amastigote nests at 60 mg/kg/day, po; format: functional, organism-based
Trypanosoma cruzi [18] = experiment: Antitrypanosomal activity against Trypanosoma cruzi Argentinian isolate infected Swiss mouse assessed as prevention of skeletal muscle inflammatory infiltrates at 60 mg/kg/day, po; format: functional, organism-based; conditions: Muscle tissue
Trypanosoma cruzi [19] = experiment: Antitrypanosomal activity against Trypanosoma cruzi Argentinian isolate infected Swiss mouse assessed as inhibition of skeletal muscle amastigote nests at 60 mg/kg/day, po; format: functional, organism-based; conditions: Muscle tissue
Trypanosoma cruzi [20] = experiment: Antitrypanosomal activity against Trypanosoma cruzi Argentinian isolate infected Swiss mouse assessed as prevention of liver congestion at 60 mg/kg/day, po; format: functional, organism-based
Mus musculus [21] = experiment: Toxicity against Trypanosoma cruzi infected CD1 mouse assessed as effect on liver histology at 300 mg/kg, ip; format: organism-based; design: dose 300 mg/kg, route intraperitoneal; conditions: in vivo
Mus musculus [22] = experiment: Toxicity against Trypanosoma cruzi infected CD1 mouse assessed as effect on liver histology at 450 mg/kg, po; format: organism-based; design: dose 450 mg/kg, route oral; conditions: in vivo
Mus musculus [23] = experiment: Toxicity against Trypanosoma cruzi infected CD1 mouse assessed as effect on heart histology at 300 mg/kg, ip; format: organism-based; design: dose 300 mg/kg, route intraperitoneal; conditions: in vivo
Mus musculus [24] = experiment: Toxicity against Trypanosoma cruzi infected CD1 mouse assessed as effect on kidney histology at 450 mg/kg, po; format: organism-based; design: dose 450 mg/kg, route oral; conditions: in vivo
Mus musculus [25] = experiment: Toxicity against Trypanosoma cruzi infected CD1 mouse assessed as effect on kidney histology at 300 mg/kg, ip; format: organism-based; design: dose 300 mg/kg, route intraperitoneal; conditions: in vivo
Trypanosoma cruzi [26] = experiment: Antitrypanosomal activity against Trypanosoma cruzi Tulahuen 2 infected Swiss mouse assessed as reduction in circulating trypomastigotes antibody level at 120 mg/kg/day, po after 60 days postinfection; format: functional, organism-based
Trypanosoma cruzi [27] = experiment: Antitrypanosomal activity against Trypanosoma cruzi Tulahuen 2 infected Swiss mouse assessed as reduction in circulating trypomastigotes antibody level at 120 mg/kg/day, po after 90 days postinfection; format: functional, organism-based
Trypanosoma cruzi [28] = experiment: Antitrypanosomal activity against Trypanosoma cruzi Tulahuen 2 infected Swiss mouse assessed as reduction in circulating trypomastigotes antibody level at 200 mg/kg/day, po after 60 days postinfection; format: functional, organism-based
Trypanosoma cruzi [29] = experiment: Antitrypanosomal activity against Trypanosoma cruzi Tulahuen 2 infected Swiss mouse assessed as reduction in circulating trypomastigotes antibody level at 200 mg/kg/day, po after 90 days postinfection; format: functional, organism-based
Trypanosoma cruzi [30] = experiment: Antitrypanosomal activity against Trypanosoma cruzi Tulahuen 2 infected Swiss mouse assessed as prevention of heart inflammatory infiltrates at 200 mg/kg/day, po; format: functional, organism-based
Trypanosoma cruzi [31] = experiment: Antitrypanosomal activity against Trypanosoma cruzi Tulahuen 2 infected Swiss mouse assessed as prevention of muscle inflammatory infiltrates at 200 mg/kg/day, po; format: functional, organism-based; conditions: Muscle tissue
Trypanosoma cruzi [32] = experiment: Antitrypanosomal activity against Trypanosoma cruzi Tulahuen 2 infected Swiss mouse assessed as prevention of liver congestion at 200 mg/kg/day, po; format: functional, organism-based

With `[O-][n+]1onc2ccc(/C=C/c3ccccc3)cc21` the Activity (Trypanosoma cruzi [1]) was “inactive”, the Activity (Mus musculus [2]) was “Non-toxic” and the Activity (Trypanosoma cruzi [3]) was “Active”. For the same compound, the Activity (Trypanosoma cruzi [4]) was “Active”, the Activity (Trypanosoma cruzi [5]) was “Active” and the Activity (Trypanosoma cruzi [6]) was “Active”. The Activity (Trypanosoma cruzi [7]) was “Active”, the Activity (Trypanosoma cruzi [8]) was “Active” and the Activity (Trypanosoma cruzi [9]) was “Active”. For the same compound, the Activity (Trypanosoma cruzi [10]) was “Active”, the Activity (Trypanosoma cruzi [11]) was “Active” and the survival at 600 h [12] was 100%. The survival at 600 h [13] was 100%, the Activity (Trypanosoma cruzi [14]) was “Active” and the Activity (Trypanosoma cruzi [15]) was “Active”. For the same compound, the Activity (Trypanosoma cruzi [16]) was “Active”, the Activity (Trypanosoma cruzi [17]) was “Active” and the Activity (Trypanosoma cruzi [18]) was “Active”. For the same compound, the Activity (Trypanosoma cruzi [19]) was “Active”, the Activity (Trypanosoma cruzi [20]) was “Active” and the Activity (Mus musculus [21]) was “Non-toxic”. The Activity (Mus musculus [22]) was “Non-toxic”, the Activity (Mus musculus [23]) was “Non-toxic” and the Activity (Mus musculus [24]) was “Non-toxic”. The Activity (Mus musculus [25]) was “Non-toxic”.
In the case of `CC1CS(=O)(=O)CCN1/N=C/c1ccc([N+](=O)[O-])o1` (configuration not stated) [NIFURTIMOX], the Activity (Mus musculus [2]) is reported as “Non-toxic”, the Activity (Trypanosoma cruzi [16]) is reported as “Active” and the Activity (Trypanosoma cruzi [17]) is reported as “Active”. The Activity (Trypanosoma cruzi [18]) was “Active”, the Activity (Trypanosoma cruzi [19]) was “Active” and the Activity (Trypanosoma cruzi [20]) was “Active”. The Activity (Mus musculus [21]) was “Toxic”, the Activity (Mus musculus [22]) was “Toxic” and the Activity (Mus musculus [23]) was “Non-toxic”. For the same compound, the Activity (Mus musculus [24]) was “Toxic” and the Activity (Mus musculus [25]) was “Non-toxic”.
With `[O-][n+]1onc2ccc(/C=C/c3ccc4c(c3)OCO4)cc21` the Activity (Trypanosoma cruzi [1]) was “inactive”, the Activity (Trypanosoma cruzi [26]) was “Active” and the Activity (Trypanosoma cruzi [27]) was “Active”. The Activity (Trypanosoma cruzi [5]) was “Active”, the Activity (Trypanosoma cruzi [6]) was “Active” and the Activity (Trypanosoma cruzi [7]) was “Active”. The Activity (Trypanosoma cruzi [9]) was “Active”, the Activity (Trypanosoma cruzi [10]) was “Active” and the Activity (Trypanosoma cruzi [11]) was “Active”. The survival at 600 h [12] was 100% and the survival at 600 h [13] was 100%.
For `O=C(Cn1ccnc1[N+](=O)[O-])NCc1ccccc1` [BENZNIDAZOLE], the Activity (Trypanosoma cruzi [1]) was “Active”, the Activity (Trypanosoma cruzi [28]) was “Active” and the Activity (Trypanosoma cruzi [29]) was “Active”. The Activity (Trypanosoma cruzi [30]) was “Active”, the Activity (Trypanosoma cruzi [31]) was “Active” and the Activity (Trypanosoma cruzi [32]) was “Active”. For the same compound, the Activity (Trypanosoma cruzi [9]) was “Active”, the Activity (Trypanosoma cruzi [10]) was “Active” and the Activity (Trypanosoma cruzi [11]) was “Active”. For the same compound, the survival at 600 h [12] was 100%.
In the case of `[O-][n+]1onc2ccc(/C=C\c3ccc4c(c3)OCO4)cc21`, the Activity (Trypanosoma cruzi [1]) is reported as “inactive”, the Activity (Trypanosoma cruzi [5]) is reported as “Active” and the Activity (Trypanosoma cruzi [6]) is reported as “Active”. For the same compound, the Activity (Trypanosoma cruzi [7]) was “Active”, the Activity (Trypanosoma cruzi [8]) was “Active” and the Activity (Trypanosoma cruzi [9]) was “Active”. For the same compound, the Activity (Trypanosoma cruzi [10]) was “Active”, the Activity (Trypanosoma cruzi [11]) was “Active” and the survival at 600 h [12] was 100%. It also gave a survival at 600 h [13] of 100%.
